# From ChEMBL document CHEMBL4507318, “Data for DCP probe BAY-985” (2021)
# Columns and labels:
# [1] = target: Cyclin-G-associated kinase (Homo sapiens) (UniProt O14976)
# [2] = target: Ephrin type-A receptor 6 (Homo sapiens) (UniProt Q9UF33)
# [3] = target: 5'-AMP-activated protein kinase catalytic subunit alpha-2 (Homo sapiens) (UniProt P54646)
# [4] = target: Casein kinase I isoform epsilon (Homo sapiens) (UniProt P49674)
# [5] = target: Mitogen-activated protein kinase kinase kinase 20 (Homo sapiens) (UniProt Q9NYL2)
# [6] = target: Rho-associated protein kinase 1 (Homo sapiens) (UniProt Q13464)
# [7] = target: Phosphatidylinositol 3-kinase C2 domain-containing subunit gamma (Homo sapiens) (UniProt O75747)
# [8] = target: Serine/threonine-protein kinase Nek7 (Homo sapiens) (UniProt Q8TDX7)
# [9] = target: Protein kinase C eta type (Homo sapiens) (UniProt P24723)
# [10] = target: Serine/threonine-protein kinase Nek10 (Homo sapiens) (UniProt Q6ZWH5)
# [11] = target: High affinity nerve growth factor receptor (Homo sapiens) (UniProt P04629)
# [12] = target: Serine/threonine-protein kinase LATS1 (Homo sapiens) (UniProt O95835)
# [13] = target: Ephrin type-B receptor 6 (Homo sapiens) (UniProt O15197)
# [14] = target: Death-associated protein kinase 3 (Homo sapiens) (UniProt O43293)
# Sequence of Death-associated protein kinase 3 (Homo sapiens) (O43293 whole entry, looked up): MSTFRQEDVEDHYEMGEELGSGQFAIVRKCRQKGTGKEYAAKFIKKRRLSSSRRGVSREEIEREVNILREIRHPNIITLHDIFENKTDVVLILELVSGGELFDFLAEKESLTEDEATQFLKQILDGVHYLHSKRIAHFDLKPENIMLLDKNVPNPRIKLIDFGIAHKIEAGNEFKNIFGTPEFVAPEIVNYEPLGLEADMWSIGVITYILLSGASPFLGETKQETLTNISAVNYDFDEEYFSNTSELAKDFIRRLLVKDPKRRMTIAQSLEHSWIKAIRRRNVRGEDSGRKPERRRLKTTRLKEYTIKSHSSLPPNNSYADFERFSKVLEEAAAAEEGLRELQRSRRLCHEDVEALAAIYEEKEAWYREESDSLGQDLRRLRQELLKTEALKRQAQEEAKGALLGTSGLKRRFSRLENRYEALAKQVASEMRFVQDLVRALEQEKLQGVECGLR
# [15] = target: Ribosomal protein S6 kinase alpha-3 (Homo sapiens) (UniProt P51812)
# [16] = target: Ephrin type-A receptor 3 (Homo sapiens) (UniProt P29320)
# [17] = target: Serine/threonine-protein kinase mTOR (Homo sapiens) (UniProt P42345)
# [18] = target: Cyclin-dependent kinase 4 (Homo sapiens) (UniProt P11802)
# [19] = target: Serine/threonine-protein kinase LATS2 (Homo sapiens) (UniProt Q9NRM7)
# [20] = target: Serine/threonine-protein kinase SIK3 (Homo sapiens) (UniProt Q9Y2K2)
# Sequence of Serine/threonine-protein kinase SIK3 (Homo sapiens) (Q9Y2K2 whole entry, looked up): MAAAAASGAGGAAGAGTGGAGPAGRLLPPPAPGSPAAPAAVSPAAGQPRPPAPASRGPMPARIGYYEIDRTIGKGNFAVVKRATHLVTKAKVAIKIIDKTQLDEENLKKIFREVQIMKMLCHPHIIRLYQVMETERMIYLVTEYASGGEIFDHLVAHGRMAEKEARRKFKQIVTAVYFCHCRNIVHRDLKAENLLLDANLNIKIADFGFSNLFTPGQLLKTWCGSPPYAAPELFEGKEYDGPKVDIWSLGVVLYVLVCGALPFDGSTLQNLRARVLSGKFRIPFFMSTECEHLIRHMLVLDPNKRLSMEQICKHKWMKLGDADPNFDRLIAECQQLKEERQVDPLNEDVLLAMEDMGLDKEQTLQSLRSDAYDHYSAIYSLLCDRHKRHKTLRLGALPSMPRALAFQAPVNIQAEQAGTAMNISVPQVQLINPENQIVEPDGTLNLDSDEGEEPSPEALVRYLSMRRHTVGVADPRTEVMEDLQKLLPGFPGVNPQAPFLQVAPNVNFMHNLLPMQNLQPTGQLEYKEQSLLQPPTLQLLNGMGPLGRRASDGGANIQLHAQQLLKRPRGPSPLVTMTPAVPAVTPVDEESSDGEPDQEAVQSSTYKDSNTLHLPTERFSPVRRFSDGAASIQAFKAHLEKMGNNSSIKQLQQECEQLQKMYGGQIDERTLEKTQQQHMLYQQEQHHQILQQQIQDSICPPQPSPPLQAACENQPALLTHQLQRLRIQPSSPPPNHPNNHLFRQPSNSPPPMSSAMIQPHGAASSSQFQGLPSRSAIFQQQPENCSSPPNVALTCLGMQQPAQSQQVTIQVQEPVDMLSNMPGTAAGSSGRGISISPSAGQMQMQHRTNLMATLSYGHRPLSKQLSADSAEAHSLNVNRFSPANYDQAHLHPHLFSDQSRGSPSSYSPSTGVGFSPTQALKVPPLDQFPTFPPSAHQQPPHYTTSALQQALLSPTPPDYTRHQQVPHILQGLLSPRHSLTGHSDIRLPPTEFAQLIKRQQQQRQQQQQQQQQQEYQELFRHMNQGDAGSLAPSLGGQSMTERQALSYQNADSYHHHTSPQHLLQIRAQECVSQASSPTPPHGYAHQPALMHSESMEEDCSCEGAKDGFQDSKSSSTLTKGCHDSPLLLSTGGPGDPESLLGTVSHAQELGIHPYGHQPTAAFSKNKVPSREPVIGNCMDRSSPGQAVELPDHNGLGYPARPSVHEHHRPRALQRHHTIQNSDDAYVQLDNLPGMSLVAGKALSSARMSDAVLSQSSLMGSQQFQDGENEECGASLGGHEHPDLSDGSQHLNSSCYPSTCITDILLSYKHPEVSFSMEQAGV
# [21] = target: Mitogen-activated protein kinase kinase kinase kinase 2 (Homo sapiens) (UniProt Q12851)
# [22] = target: Beta-1 adrenergic receptor (Homo sapiens) (UniProt P08588); settings: Compound concentration 10.0 uM
# [23] = target: Ephrin type-B receptor 4 (Homo sapiens) (UniProt P54760)
# [24] = target: SRSF protein kinase 2 (Homo sapiens) (UniProt P78362)
# [25] = target: Calcium/calmodulin-dependent protein kinase type 1D (Homo sapiens) (UniProt Q8IU85)
# [26] = target: Serine/threonine-protein kinase PLK2 (Homo sapiens) (UniProt Q9NYY3)
# [27] = target: Angiopoietin-1 receptor (Homo sapiens) (UniProt Q02763)
# [28] = target: cAMP-dependent protein kinase catalytic subunit PRKX (Homo sapiens) (UniProt P51817)
# [29] = target: Activin receptor type-2B (Homo sapiens) (UniProt Q13705)
# [30] = target: Serine/threonine-protein kinase 32A (Homo sapiens) (UniProt Q8WU08)
# [31] = target: Serine/threonine-protein kinase pim-3 (Homo sapiens) (UniProt Q86V86)
# [32] = target: Casein kinase II subunit alpha' (Homo sapiens) (UniProt P19784)
# [33] = target: Serine/threonine-protein kinase 36 (Homo sapiens) (UniProt Q9NRP7)
# Sequence of Serine/threonine-protein kinase 36 (Homo sapiens) (Q9NRP7 whole entry): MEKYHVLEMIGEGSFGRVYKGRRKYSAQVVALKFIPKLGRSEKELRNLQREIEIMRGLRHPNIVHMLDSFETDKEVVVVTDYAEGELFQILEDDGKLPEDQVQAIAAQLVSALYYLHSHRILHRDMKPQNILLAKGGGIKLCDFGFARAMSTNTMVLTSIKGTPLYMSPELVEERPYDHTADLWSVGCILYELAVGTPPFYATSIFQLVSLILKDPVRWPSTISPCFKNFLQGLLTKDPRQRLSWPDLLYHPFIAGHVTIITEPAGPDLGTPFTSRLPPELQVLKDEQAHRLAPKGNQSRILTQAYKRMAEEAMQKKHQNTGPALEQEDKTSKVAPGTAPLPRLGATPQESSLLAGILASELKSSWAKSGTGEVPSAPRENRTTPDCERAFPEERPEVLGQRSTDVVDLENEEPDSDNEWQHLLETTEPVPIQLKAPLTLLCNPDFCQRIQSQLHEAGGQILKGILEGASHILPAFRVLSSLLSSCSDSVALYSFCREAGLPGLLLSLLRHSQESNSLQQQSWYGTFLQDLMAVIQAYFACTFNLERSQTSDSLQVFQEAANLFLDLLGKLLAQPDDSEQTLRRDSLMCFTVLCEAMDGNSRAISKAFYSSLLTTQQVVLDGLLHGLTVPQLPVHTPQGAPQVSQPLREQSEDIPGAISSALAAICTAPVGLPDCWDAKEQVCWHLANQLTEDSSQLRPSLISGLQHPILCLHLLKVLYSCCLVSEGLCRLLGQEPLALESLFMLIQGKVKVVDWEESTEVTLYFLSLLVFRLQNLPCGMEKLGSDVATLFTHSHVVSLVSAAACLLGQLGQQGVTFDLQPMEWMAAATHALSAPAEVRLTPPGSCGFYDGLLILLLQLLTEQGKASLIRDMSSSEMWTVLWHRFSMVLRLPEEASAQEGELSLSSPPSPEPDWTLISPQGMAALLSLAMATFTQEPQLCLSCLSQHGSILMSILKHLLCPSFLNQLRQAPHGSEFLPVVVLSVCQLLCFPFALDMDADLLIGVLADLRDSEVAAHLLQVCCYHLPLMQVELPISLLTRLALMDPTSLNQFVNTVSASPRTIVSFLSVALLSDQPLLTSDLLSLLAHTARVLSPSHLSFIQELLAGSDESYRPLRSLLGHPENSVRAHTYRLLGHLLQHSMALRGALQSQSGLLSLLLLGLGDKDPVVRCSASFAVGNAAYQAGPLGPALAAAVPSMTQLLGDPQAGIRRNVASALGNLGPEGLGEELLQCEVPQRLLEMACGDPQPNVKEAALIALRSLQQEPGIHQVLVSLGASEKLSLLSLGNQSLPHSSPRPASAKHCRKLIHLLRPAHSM
# [34] = target: Cyclin-dependent kinase 7 (Homo sapiens) (UniProt P50613)
# [35] = target: Homeodomain-interacting protein kinase 1 (Homo sapiens) (UniProt Q86Z02)
# Sequence of Homeodomain-interacting protein kinase 1 (Homo sapiens) (Q86Z02 whole entry, looked up): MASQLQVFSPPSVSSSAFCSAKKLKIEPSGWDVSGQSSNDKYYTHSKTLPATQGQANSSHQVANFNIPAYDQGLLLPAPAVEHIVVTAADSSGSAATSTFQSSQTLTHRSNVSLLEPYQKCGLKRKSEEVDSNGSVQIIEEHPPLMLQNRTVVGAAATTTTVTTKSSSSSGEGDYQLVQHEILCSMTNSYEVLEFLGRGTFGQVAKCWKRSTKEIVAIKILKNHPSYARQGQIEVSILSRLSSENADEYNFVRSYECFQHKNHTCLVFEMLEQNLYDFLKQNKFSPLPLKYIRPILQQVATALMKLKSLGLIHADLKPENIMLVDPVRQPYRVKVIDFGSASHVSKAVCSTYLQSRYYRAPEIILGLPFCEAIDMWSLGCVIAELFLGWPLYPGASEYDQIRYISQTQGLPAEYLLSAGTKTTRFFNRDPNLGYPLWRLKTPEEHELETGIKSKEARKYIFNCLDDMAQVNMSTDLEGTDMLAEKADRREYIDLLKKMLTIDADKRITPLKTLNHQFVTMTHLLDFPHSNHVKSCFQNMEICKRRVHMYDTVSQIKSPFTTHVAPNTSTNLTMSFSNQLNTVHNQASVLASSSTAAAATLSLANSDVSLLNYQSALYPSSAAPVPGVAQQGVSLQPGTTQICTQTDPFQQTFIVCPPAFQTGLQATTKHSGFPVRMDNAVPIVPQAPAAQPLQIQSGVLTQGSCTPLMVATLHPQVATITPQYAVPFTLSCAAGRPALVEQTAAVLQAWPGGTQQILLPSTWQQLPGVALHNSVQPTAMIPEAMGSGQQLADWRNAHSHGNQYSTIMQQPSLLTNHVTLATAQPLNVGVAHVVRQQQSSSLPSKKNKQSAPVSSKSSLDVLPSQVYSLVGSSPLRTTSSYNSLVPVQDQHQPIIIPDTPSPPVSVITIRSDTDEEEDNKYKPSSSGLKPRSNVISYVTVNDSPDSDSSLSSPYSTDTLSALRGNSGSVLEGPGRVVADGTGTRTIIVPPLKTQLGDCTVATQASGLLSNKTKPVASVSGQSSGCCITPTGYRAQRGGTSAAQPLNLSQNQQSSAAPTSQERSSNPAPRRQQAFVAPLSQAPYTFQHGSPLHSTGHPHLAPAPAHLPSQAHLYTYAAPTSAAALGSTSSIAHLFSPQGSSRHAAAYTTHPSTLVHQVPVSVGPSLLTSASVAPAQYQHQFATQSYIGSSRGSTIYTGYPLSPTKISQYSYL
# [36] = test system: Hepatocyte growth factor receptor (Homo sapiens), P08581 [M1250T]
# [37] = target: Tyrosine-protein kinase Mer (Homo sapiens) (UniProt Q12866)
# [38] = test system: Tyrosine-protein kinase ABL1 (Homo sapiens), P00519 [Q252H]
# [39] = target: D(1B) dopamine receptor (Homo sapiens) (UniProt P21918); settings: Compound concentration 10.0 uM
# [40] = target: Serine/threonine-protein kinase 16 (Homo sapiens) (UniProt O75716)
# [41] = target: Phosphatidylinositol 4-phosphate 3-kinase C2 domain-containing subunit beta (Homo sapiens) (UniProt O00750)
# [42] = target: Fibroblast growth factor receptor 4 (Homo sapiens) (UniProt P22455)
# [43] = target: Muscarinic acetylcholine receptor M5 (Homo sapiens) (UniProt P08912); settings: Compound concentration 10.0 uM
# Sequence of Muscarinic acetylcholine receptor M5 (Homo sapiens) (P08912 whole entry): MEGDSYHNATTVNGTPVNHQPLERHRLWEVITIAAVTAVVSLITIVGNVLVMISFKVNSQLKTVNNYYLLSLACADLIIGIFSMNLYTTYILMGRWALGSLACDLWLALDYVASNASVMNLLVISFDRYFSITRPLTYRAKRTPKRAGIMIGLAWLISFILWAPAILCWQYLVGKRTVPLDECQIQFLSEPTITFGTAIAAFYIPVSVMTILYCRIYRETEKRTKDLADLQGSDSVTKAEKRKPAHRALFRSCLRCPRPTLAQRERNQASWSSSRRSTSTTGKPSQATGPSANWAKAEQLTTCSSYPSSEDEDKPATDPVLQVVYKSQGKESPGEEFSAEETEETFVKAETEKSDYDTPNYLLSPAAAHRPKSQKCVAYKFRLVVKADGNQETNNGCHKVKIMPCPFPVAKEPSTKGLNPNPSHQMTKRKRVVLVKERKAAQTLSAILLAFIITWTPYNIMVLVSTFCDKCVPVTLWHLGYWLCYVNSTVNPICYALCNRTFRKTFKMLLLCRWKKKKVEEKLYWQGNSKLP
# [44] = target: Serine/threonine-protein kinase MRCK alpha (Homo sapiens) (UniProt Q5VT25)
# [45] = target: Dual specificity mitogen-activated protein kinase kinase 5 (Homo sapiens) (UniProt Q13163)
# [46] = target: Serine/threonine-protein kinase Sgk1 (Homo sapiens) (UniProt O00141)
# [47] = Compound concentration 1000.0 nM
# [48] = Compound concentration 100.0 nM
structure (smiles),measurement,setting,value
CN(C)c1ncnc(-c2ccc3nc(Nc4cc(CN5CCN(C(=O)CC(F)(F)F)CC5)ccn4)[nH]c3c2)c1Cl [BAY-440],residual activity,[1]; [47],82%
same,residual activity,[2]; [47],100%
same,residual activity,[3]; [47],100%
same,residual activity,[4]; [47],100%
same,residual activity,[5]; [47],65%
same,residual activity,[6]; [47],100%
same,residual activity,[7]; [47],83%
same,residual activity,[8]; [47],100%
same,residual activity,[9]; [47],100%
same,residual activity,[10]; [47],72%
same,residual activity,[11]; [47],38%
same,residual activity,[12]; [47],95%
same,residual activity,[13]; [47],69%
same,residual activity,[14]; [47],99%
same,residual activity,[15]; [47],81%
same,residual activity,[16]; [47],63%
same,residual activity,[17]; [47],100%
same,residual activity,[18]; [47],69%
same,residual activity,[19]; [47],53%
same,residual activity,[20]; [47],83%
same,residual activity,[21]; [47],69%
same,inhibition,[22],-6.2%
same,residual activity,[23]; [47],100%
same,residual activity,[24]; [47],76%
same,residual activity,[25]; [47],100%
same,residual activity,[26]; [47],100%
same,residual activity,[27]; [47],87%
same,residual activity,[28]; [47],100%
same,residual activity,[29]; [47],100%
same,residual activity,[30]; [47],85%
same,residual activity,[31]; [47],100%
same,residual activity,[32]; [47],78%
same,residual activity,[33]; [47],98%
same,residual activity,[34]; [47],80%
same,residual activity,[35]; [47],74%
same,residual activity,[36]; [47],70%
same,residual activity,[37]; [47],87%
same,residual activity,[38]; [47],29%
same,inhibition,[39],-9.93%
same,residual activity,[40]; [47],100%
same,residual activity,[41]; [47],100%
same,residual activity,[42]; [47],92%
same,inhibition,[43],12.4%
same,residual activity,[44]; [47],100%
same,residual activity,[45]; [47],1.8%
same,residual activity,[46]; [47],37%
C[C@H](c1ccnc(Nc2nc3ccc(-c4cc(N(C)C)ncn4)cc3[nH]2)c1)N1CCN(C(=O)CC(F)(F)F)CC1 [BAY-985],residual activity,[1]; [48],95%
same,residual activity,[2]; [48],93%
same,residual activity,[3]; [48],100%
same,residual activity,[4]; [48],100%
same,residual activity,[5]; [48],98%
same,residual activity,[6]; [48],100%
same,residual activity,[7]; [48],94%
same,residual activity,[8]; [48],100%
same,residual activity,[9]; [48],84%
same,residual activity,[10]; [48],100%
same,residual activity,[11]; [48],79%
same,residual activity,[12]; [48],100%
same,residual activity,[13]; [48],100%
same,residual activity,[14]; [48],90%
same,residual activity,[15]; [48],100%
same,residual activity,[16]; [48],100%
same,residual activity,[17]; [48],75%
same,residual activity,[18]; [48],100%
same,residual activity,[19]; [48],80%
same,residual activity,[20]; [48],100%
same,residual activity,[21]; [48],100%
same,inhibition,[22],24.3%
same,residual activity,[23]; [48],100%
same,residual activity,[24]; [48],100%
same,residual activity,[25]; [48],95%
same,residual activity,[26]; [48],100%
same,residual activity,[27]; [48],99%
same,residual activity,[28]; [48],99%
same,residual activity,[29]; [48],81%
same,residual activity,[30]; [48],100%
same,residual activity,[31]; [48],87%
same,residual activity,[32]; [48],100%
same,residual activity,[33]; [48],97%
same,residual activity,[34]; [48],93%
same,residual activity,[35]; [48],95%
same,residual activity,[36]; [48],93%
same,residual activity,[37]; [48],97%
same,residual activity,[38]; [48],84%
same,inhibition,[39],10.2%
same,residual activity,[40]; [48],86%
same,residual activity,[41]; [48],97%
same,residual activity,[42]; [48],98%
same,inhibition,[43],18.7%
same,residual activity,[44]; [48],99%
same,residual activity,[45]; [48],8.5%
same,residual activity,[46]; [48],94%
